Active and inactive are the calls of the source. No rule for the calls is given here.
Target: alkaline phosphatase, placental type (Homo sapiens)
Experiment: PLAP enzyme inhibitors, dose response, selectivity assay for mouse IAP inhibitor project, biochemical, uHTS hits (AID 488879)
Conditions: purified human placental alkaline phosphatase, enzymatic inhibition

**Q.** How did the IC50 turn out when CN(CC(=O)NC(c1ccccc1)c1ccccc1)Cc1nc2ccccc2c(=O)[nH]1 was run?
**A.** > 100 µM (inactive)

**Q.** With NS(=O)(=O)c1ccc2c(c1)oc(=O)c1cc(S(N)(=O)=O)ccc12 as the compound, how does the IC50 read?
**A.** > 100 µM (inactive)

**Q.** How did the IC50 turn out when O=C(NN1C(=O)/C(=C/c2ccc(O)c(O)c2)SC1=S)c1ccccc1 was run?
**A.** > 100 µM (inactive)

**Q.** How did the IC50 turn out when Cc1nonc1C(=O)N/N=C/c1ccc(O)c(O)c1 was run?
**A.** 18 µM

**Q.** How did the IC50 turn out when CCCn1ncc(CN2CCC(C(=O)Nc3cccc(-c4cccc(F)c4)c3)CC2)c1C was run?
**A.** > 100 µM (inactive)

**Q.** Which IC50 does the source give for COc1cc(OC)c2c(c1O)OC(c1ccccc1)CC2=O (stereo not given) here?
**A.** > 100 µM (inactive)

**Q.** For N#C/C(=C\c1ccc(O)c(O)c1)C(=O)Nc1cccc2ncccc12, which IC50 is on record?
**A.** 7.32 µM

**Q.** Which IC50 does the source give for O=C(O)CC(C(=O)O)N1C(=O)/C(=C/C=C/c2ccco2)SC1=S (stereo not given) here?
**A.** > 100 µM (inactive)

**Q.** How did the IC50 turn out when COc1cc(/C=C/[N+](=O)[O-])ccc1OC(=O)c1cc2ccccc2oc1=O was run?
**A.** > 100 µM (inactive)

**Q.** With Cn1nc([N+](=O)[O-])nc1S(C)(=O)=O as the compound, how does the IC50 read?
**A.** > 100 µM (inactive)

**Q.** CCOc1ccccc1CNC(=O)CCNS(=O)(=O)c1ccc2[nH]c(=O)oc2c1 was tested. Which IC50 did it give?
**A.** > 100 µM (inactive)

**Q.** Cc1ccc(CN2C3CCCC2CC(NC(=O)Nc2cccc(F)c2)C3)cc1 (stereo not given) was tested. Which IC50 did it give?
**A.** > 100 µM (inactive)

**Q.** With O=C(COC(=O)c1ccccc1)Nc1ncc([N+](=O)[O-])s1 as the compound, how does the IC50 read?
**A.** 60.2 µM

**Q.** For OCCCN1c2ccccc2Nc2nnc(-c3ccccc3)cc21, which IC50 is on record?
**A.** > 100 µM (inactive)

**Q.** O=C(NNC(=O)c1cc2cc(Br)ccc2oc1=O)c1ccc(O)cc1O was tested. Which IC50 did it give?
**A.** > 100 µM (inactive)

**Q.** For O=C1N=c2ccccc2=C1c1sc(=S)n(NC(=O)c2ccccc2)c1O, which IC50 is on record?
**A.** 5.31 µM

**Q.** How did the IC50 turn out when O=C(COC(=O)COc1ccccc1)Nc1ncc([N+](=O)[O-])s1 was run?
**A.** > 100 µM (inactive)

**Q.** How did the IC50 turn out when CCOC(=O)C1=C(C)N=c2s/c(=C/c3cccc([N+](=O)[O-])c3O)c(=O)n2C1c1ccc(OC)cc1OC (stereo not given) was run?
**A.** > 100 µM (inactive)

**Q.** How did the IC50 turn out when CCN1/C(=C/C=C/c2sc3ccccc3[n+]2CC)Sc2ccccc21 was run?
**A.** > 100 µM (inactive)

**Q.** Which IC50 does the source give for FC(F)Sc1ccc(NC(=S)NC(c2ccccc2)c2ccccc2)cc1 here?
**A.** > 100 µM (inactive)

**Q.** Which IC50 does the source give for C#CCOCCOCCOCCNc1nc(N2CCN(C(=O)CCCCCCCCCCNC(=O)[C@H](CO)n3cc(CCCSC)nn3)CC2)nc(N2CCN(C(=O)CCCCCCCCCCNC(=O)[C@H](CCCN=C(N)N)n3cc(C[C@@H](C)CC)nn3)CC2)n1 here?
**A.** > 100 µM (inactive)

**Q.** For Cc1ccc(Cl)c2c1=NC(=O)C=2c1[nH]c(=S)[nH]c1O, which IC50 is on record?
**A.** > 100 µM (inactive)

**Q.** For CCN(C(=O)C(C)N1C(=O)/C(=C/c2ccco2)SC1=S)C1CCS(=O)(=O)C1 (stereo not given), which IC50 is on record?
**A.** 7.78 µM

**Q.** How did the IC50 turn out when O=C1c2cccc(O)c2C(=O)c2c(O)cc(CO)cc21 was run?
**A.** > 100 µM (inactive)

**Q.** O=C(O)CNS(=O)(=O)c1ccc2c3c(cccc13)C(=O)N2 was tested. Which IC50 did it give?
**A.** > 100 µM (inactive)

**Q.** Which IC50 does the source give for CCOc1ccccc1N1CCN(S(=O)(=O)c2ccc3c4c(cccc24)C(=O)N3)CC1 here?
**A.** > 100 µM (inactive)

**Q.** How did the IC50 turn out when O=C(NN1C(=O)/C(=C/c2ccc(O)cc2)SC1=S)c1ccccc1O was run?
**A.** > 100 µM (inactive)

**Q.** With O=C(Nc1cccc(-c2cccc(Cl)c2)c1)C1CCN(C2CCC2)CC1 as the compound, how does the IC50 read?
**A.** 10.2 µM

**Q.** Which IC50 does the source give for CC(C)(C)c1ccc(O)c(N=Cc2cc3c(cc2[N+](=O)[O-])OCO3)c1 here?
**A.** > 100 µM (inactive)

**Q.** With Cc1cc(O)c(Sc2ncn[nH]2)cc1NS(=O)(=O)c1ccc(Cl)cc1 as the compound, how does the IC50 read?
**A.** > 100 µM (inactive)
